Data: patent EP0114128A1, “3-Amino-2-oxo-azetidine derivatives containing in position 1 a nitrogen heterocyclic radical, process for their preparation, their use as therapeutical agents and intermediates for their preparation” (priority 1983, dated 1984)
Read-outs that look alike come from different tables or passages of the source.

Columns and labels:
Assay in all cases: In vitro activity, dilution method in liquid medium (MIC)
Type in all cases: cell-based
Escherichia Coli 078 = settings: read-out: concentrations minimales inhibitrices (C. M. I.)
Method: (§1) Etude pharmacologiaue des produits de l'invention. Activité in vitro, méthode des dilutions en milieu liquide.
(§2) On prépare une série de tubes dans lesquels on répartit une même quantité de milieu nutritif stérile. On distribue dans chaque tube des quantités croissantes du produit à étudier, puis chaque tube est ensemencé avec une souche bactérienne. Après incubation de vingt-quatre ou quarante-huit heures à l'étuve à 37°C, l'inhibition de la croissance est appréciée par transillumination ce qui permet de déterminer les concentrations minimales inhibitrices (C. M. I.) exprimées en µg/cm3.

[1] = tested on: Salmonella typhimurium MZ 11; settings: Salmonella enterica, read-out: concentrations minimales inhibitrices (C. M. I.)
Method: as §1, §2

[2] = tested on: Pseudomonas aeruginosa 1771 m; settings: read-out: concentrations minimales inhibitrices (C. M. I.)
Method: as §1, §2

Proteus vulgaris A 232 = settings: read-out: concentrations minimales inhibitrices (C. M. I.)
Method: as §1, §2

Proteus mirabilis A 235 = settings: read-out: concentrations minimales inhibitrices (C. M. I.)
Method: as §1, §2

[3] = tested on: Enterobacter cloacae 1321 E; settings: read-out: concentrations minimales inhibitrices (C. M. I.)
Method: as §1, §2

Escherichia Coli DC2 = settings: read-out: concentrations minimales inhibitrices (C. M. I.)
Method: as §1, §2

Escherichia Coli 1507 E = settings: COLI1507E, read-out: concentrations minimales inhibitrices (C. M. I.)
Method: as §1, §2

Serratia marcesceus 2532 = settings: read-out: concentrations minimales inhibitrices (C. M. I.)
Method: as §1, §2

Providencia DU 48 = settings: read-out: concentrations minimales inhibitrices (C. M. I.)
Method: as §1, §2

[4] = tested on: Klebsiella pneumonae 52145; settings: read-out: concentrations minimales inhibitrices (C. M. I.)
Method: as §1, §2

Escherichia Coli DC0 = settings: read-out: concentrations minimales inhibitrices (C. M. I.)
Method: as §1, §2

Escherichia Coli 1894 = settings: read-out: concentrations minimales inhibitrices (C. M. I.)
Method: as §1, §2

Escherichia Coli TEM = settings: read-out: concentrations minimales inhibitrices (C. M. I.)
Method: as §1, §2

[5] = tested on: Klebsiella Aeruginosa 1522 E; settings: read-out: concentrations minimales inhibitrices (C. M. I.)
Method: as §1, §2

[6] = COLI078, 24 H incubation at 37°C
[7] = COLI078, 48 H incubation at 37°C
[8] = COLIDC2, 24 H incubation at 37°C
[9] = COLIDC2, 48 H incubation at 37°C
[10] = COLIDC0, 24 H incubation at 37°C
[11] = COLIDC0, 48 H incubation at 37°C
[12] = COLI1894, 24 H incubation at 37°C
[13] = COLI1894, 48 H incubation at 37°C

Measured: MIC

CO/N=C(\C(=O)N[C@@H]1C(=O)N(c2nn[nH]n2)[C@@H]1C)c1csc(N)n1 (racemic) [Prod. ex. 1, (3SR. 4RS) 3-//2-(2-aminothiazol-4-yl) 2-méthoxyimino acétyl/ amino/-4-méthyl 1-(1H-tétrazol-5-yl)-2-azétidinone isomère syn]
≤ 5 µg/mL: [2]; 24 H incubation at 37°C | [2]; 48 H incubation at 37°C
0.3 µg/mL: Escherichia Coli 078; [6] | Escherichia Coli 078; [7] | Proteus vulgaris A 232; A232, 24 H incubation at 37°C | Proteus vulgaris A 232; A232, 48 H incubation at 37°C | Escherichia Coli 1507 E; 24 H incubation at 37°C | Escherichia Coli 1507 E; 48 H incubation at 37°C
2.5 µg/mL: [4]; 48 H incubation at 37°C
0.08 µg/mL: Escherichia Coli 1894; [12] | Escherichia Coli 1894; [13]
0.15 µg/mL: Proteus mirabilis A 235; A235, 24 H incubation at 37°C | Proteus mirabilis A 235; A235, 48 H incubation at 37°C
1.2 µg/mL: [1]; 24 H incubation at 37°C | [1]; 48 H incubation at 37°C | [4]; 24 H incubation at 37°C | Escherichia Coli DC0; [10] | Escherichia Coli DC0; [11] | Escherichia Coli TEM; 48 h | [5]; 24 H incubation at 37°C | [5]; 48 H incubation at 37°C
0.6 µg/mL: [3]; 24 H incubation at 37°C | [3]; 48 H incubation at 37°C | Escherichia Coli DC2; [8] | Escherichia Coli DC2; [9] | Providencia DU 48; DU48, 24 H incubation at 37°C | Providencia DU 48; DU48, 48 H incubation at 37°C | Escherichia Coli TEM; 24 h
20 µg/mL: Serratia marcesceus 2532; 24 H incubation at 37°C | Serratia marcesceus 2532; 48 H incubation at 37°C

C[C@@H]1[C@H](NC(=O)/C(=N\OCC(=O)O)c2csc(N)n2)C(=O)N1c1nn[nH]n1 (racemic) [Prod. ex. 6, (3SR, 4RS) 3-//2-(2-aminothiazol-4-yl) 2/-(carboxyméthoxy) imino/acétyl/amino/ 4-méthyl 1-(1H-tétrazol-5-yl) 2-azétidinone isomère syn]
0.6 µg/mL: [1]; 24 H incubation at 37°C | [1]; 48 H incubation at 37°C | [3]; 48 H incubation at 37°C | Escherichia Coli 1507 E; 24 H incubation at 37°C | Escherichia Coli 1507 E; 48 H incubation at 37°C | Providencia DU 48; DU48, 24 H incubation at 37°C | Providencia DU 48; DU48, 48 H incubation at 37°C | Escherichia Coli DC0; [10] | Escherichia Coli DC0; [11] | Escherichia Coli 1894; [12] | Escherichia Coli 1894; [13] | Escherichia Coli TEM; 24 h | Escherichia Coli TEM; 48 h | [5]; 24 H incubation at 37°C | [5]; 48 H incubation at 37°C
0.3 µg/mL: Escherichia Coli 078; [6] | Escherichia Coli 078; [7] | [3]; 24 H incubation at 37°C | Escherichia Coli DC2; [8] | Escherichia Coli DC2; [9]
0.08 µg/mL: Proteus vulgaris A 232; A232, 24 H incubation at 37°C
0.15 µg/mL: Proteus vulgaris A 232; A232, 48 H incubation at 37°C | Proteus mirabilis A 235; A235, 24 H incubation at 37°C | Proteus mirabilis A 235; A235, 48 H incubation at 37°C
5 µg/mL: [2]; 48 H incubation at 37°C | Serratia marcesceus 2532; 48 H incubation at 37°C
2.5 µg/mL: [2]; 24 H incubation at 37°C | Serratia marcesceus 2532; 24 H incubation at 37°C | [4]; 24 H incubation at 37°C | [4]; 48 H incubation at 37°C

CO/N=C(\C(=O)N[C@@H]1C(=O)N(c2nn[nH]n2)[C@H]1C)c1csc(N)n1 (racemic) [Prod. ex. 2, (3SR, 4SR) 3-//2-(2-aminothiazol-4-yl) 2-méthoxyimino acétyl/ amino/ 4-méthyl 1-(1H-tétrazol-5-yl) 2-azétidinone]
1.2 µg/mL: [1]; 24 H incubation at 37°C | Proteus vulgaris A 232; A232, 24 H incubation at 37°C | Proteus mirabilis A 235; A235, 48 H incubation at 37°C | [3]; 24 H incubation at 37°C | [3]; 48 H incubation at 37°C | Escherichia Coli DC2; [9] | Providencia DU 48; DU48, 24 H incubation at 37°C | Providencia DU 48; DU48, 48 H incubation at 37°C
2.5 µg/mL: [1]; 48 H incubation at 37°C | Proteus vulgaris A 232; A232, 48 H incubation at 37°C | [4]; 24 H incubation at 37°C | [4]; 48 H incubation at 37°C | Escherichia Coli DC0; [10] | Escherichia Coli DC0; [11]
> 40 µg/mL: Serratia marcesceus 2532; 48 H incubation at 37°C
0.6 µg/mL: Escherichia Coli 078; [6] | Escherichia Coli 078; [7] | Proteus mirabilis A 235; A235, 24 H incubation at 37°C | Escherichia Coli DC2; [8] | Escherichia Coli 1507 E; 24 H incubation at 37°C | Escherichia Coli 1507 E; 48 H incubation at 37°C | [5]; 24 H incubation at 37°C | [5]; 48 H incubation at 37°C
≤ 5 µg/mL: [2]; 24 H incubation at 37°C | [2]; 48 H incubation at 37°C
20 µg/mL: Serratia marcesceus 2532; 24 H incubation at 37°C
0.3 µg/mL: Escherichia Coli 1894; [12] | Escherichia Coli 1894; [13]
10 µg/mL: Escherichia Coli TEM; 24 h | Escherichia Coli TEM; 48 h

CO/N=C(\C(=O)N[C@@H]1C(=O)N(c2nn[nH]n2)[C@@H]1CF)c1csc(N)n1 (racemic) [Prod. ex. 11, (3SR,4SR) 3-//2-(2-aminothiazol-4-yl) 2-méthoxyimino acétyl/ amino/ 4-(fluorométhyl) 1-(1-H-tétrazol-5-yl) 2-azétidinone]
0.15 µg/mL: Escherichia Coli 078; [6] | Escherichia Coli 078; [7] | Proteus vulgaris A 232; A232, 24 H incubation at 37°C | Proteus vulgaris A 232; A232, 48 H incubation at 37°C | Proteus mirabilis A 235; A235, 24 H incubation at 37°C | Proteus mirabilis A 235; A235, 48 H incubation at 37°C | Escherichia Coli DC2; [8] | Escherichia Coli DC2; [9]
≤ 0.04 µg/mL: Escherichia Coli 1894; [12] | Escherichia Coli 1894; [13]
0.3 µg/mL: [1]; 24 H incubation at 37°C | [1]; 48 H incubation at 37°C | [3]; 24 H incubation at 37°C | [3]; 48 H incubation at 37°C
10 µg/mL: Serratia marcesceus 2532; 24 H incubation at 37°C | Serratia marcesceus 2532; 48 H incubation at 37°C
0.6 µg/mL: Escherichia Coli DC0; [10] | Escherichia Coli DC0; [11] | Escherichia Coli TEM; 24 h | Escherichia Coli TEM; 48 h | [5]; 24 H incubation at 37°C | [5]; 48 H incubation at 37°C
1.2 µg/mL: Providencia DU 48; DU48, 24 H incubation at 37°C | Providencia DU 48; DU48, 48 H incubation at 37°C | [4]; 24 H incubation at 37°C | [4]; 48 H incubation at 37°C
0.08 µg/mL: Escherichia Coli 1507 E; 24 H incubation at 37°C | Escherichia Coli 1507 E; 48 H incubation at 37°C

C[C@@H]1[C@H](NC(=O)/C(=N\OC(F)F)c2csc(N)n2)C(=O)N1c1nn[nH]n1 (racemic) [Prod. ex. 4]
0.3 µg/mL: Escherichia Coli 078; [6] | Escherichia Coli 078; [7] | Proteus vulgaris A 232; A232, 24 H incubation at 37°C | Proteus vulgaris A 232; A232, 48 H incubation at 37°C | Proteus mirabilis A 235; A235, 24 H incubation at 37°C | Proteus mirabilis A 235; A235, 48 H incubation at 37°C
1.2 µg/mL: [1]; 24 H incubation at 37°C | [1]; 48 H incubation at 37°C | [3]; 24 H incubation at 37°C | [3]; 48 H incubation at 37°C | Escherichia Coli DC0; [10] | Escherichia Coli DC0; [11] | Escherichia Coli TEM; 48 h | [5]; 24 H incubation at 37°C | [5]; 48 H incubation at 37°C
0.15 µg/mL: Escherichia Coli 1507 E; 24 H incubation at 37°C | Escherichia Coli 1507 E; 48 H incubation at 37°C
2.5 µg/mL: Providencia DU 48; DU48, 24 H incubation at 37°C | Providencia DU 48; DU48, 48 H incubation at 37°C
0.6 µg/mL: Escherichia Coli TEM; 24 h
≤ 0.04 µg/mL: Escherichia Coli DC2; [8] | Escherichia Coli DC2; [9] | Escherichia Coli 1894; [12] | Escherichia Coli 1894; [13]
20 µg/mL: Serratia marcesceus 2532; 24 H incubation at 37°C | Serratia marcesceus 2532; 48 H incubation at 37°C
5 µg/mL: [4]; 24 H incubation at 37°C | [4]; 48 H incubation at 37°C
